The target of data set [1] is T1, hMC5R (Homo sapiens, UniProt P33032). The data set can be described thus: cAMP assay (intracellular cAMP accumulation) at hMC5R. The data set is classed as cell-based. Set-up: expressed in transfected cells. The conditions noted are these: Table 2; for Emax: cAMP activity, read-out: hMC5R % max effect. For orientation: cAMP levels reflect the balance of adenylyl cyclase and phosphodiesterase activity.
Description: (§1) IC50 and EC50 estimates and their associated standard errors were determined by fitting the data using a nonlinear least squares analysis, with the help of GraphPad Prism 5 (GraphPad Software, San Diego, Calif.).

For data set [2], the target named is T2, hMC3R (Homo sapiens, UniProt P41968). As to the kind of experiment: cAMP assay (intracellular cAMP accumulation) at hMC3R. The data set is classed as cell-based. Set-up: expressed in transfected cells. The conditions noted are these: Table 2; for EC50: 50% maximal intracellular cAMP accumulation (N = 4), tested 10^-10 to 10^-5 M.
Description: as §1
The next data set in a line: in vitro. Type of data set: in vitro ADME.
Data set [3] deals with T1, hMC5R. The data set can be described thus: Competition binding assay with [125I]-NDP-α-MSH, whole HEK293 cells expressing hMC5R. Also on record: expressed in transfected cells; host or cells: HEK293. The conditions noted are these: for MC5R % BE (Percent Binding Efficiency): maximal % of 125I-NDP-α-MSH displacement observed at 10 μM.
Description: (§2) Competition binding experiments were carried out using both of cloned cell line and melanoma cells (A375, ATCC). The whole HEK293 cells were stably expressing human MC1, MC3, MC4, and MC5 receptors. HEK293 cells transfected with hMCRs were seeded on 96-well plates 48 hours before assay (50,000 cells/well). For the assay, the cell culture medium was aspirated and the cells were washed once with a freshly prepared minimum essencial medium (MEM) buffer containing 100% minimum essential medium with Earle's salt (MEM, GIBCO), and 25 mM sodium bicarbonate. […] The assay medium was subsequently removed, the cells were washed once with basic medium, and then lysed by the addition of 100 μL of 0.1M NaOH and 100 μL of 1% Triton X-100.
(§3) IC50 values represent the mean of two experiments performed in triplicate. IC50 and EC50 estimates and their associated standard errors were determined by fitting the data using a nonlinear least squares analysis, with the help of GraphPad Prism 5 (GraphPad Software, San Diego, Calif.).
The target in data set [4] is T2, hMC3R. As to the kind of experiment: Competition binding assay with [125I]-NDP-α-MSH, whole HEK293 cells expressing hMC3R. Also on record: expressed in transfected cells; host or cells: HEK293. The note with it: for MC3R % BE (Percent Binding Efficiency): maximal % of 125I-NDP-α-MSH displacement observed at 10 μM.
Description: as §2, §3
Data set [5] deals with T3, hMC1R (Homo sapiens, UniProt Q01726).
T3 construct: expressed in transfected cells; host or cells: HEK293
The data set can be described thus: cAMP assay (intracellular cAMP accumulation) at hMC1R. Type of data set: cell-based. The conditions noted are these: Table 2; cAMP activity; read-out: hMC1R % max effect.
Description: as §1

The target of data set [6] is T4, hMC4R (Homo sapiens, UniProt P32245). As to the kind of experiment: Competition binding assay with [125I]-NDP-α-MSH, whole HEK293 cells expressing hMC4R. Also on record: expressed in transfected cells; host or cells: HEK293. The conditions noted are these: for MC4R % BE (Percent Binding Efficiency): maximal % of 125I-NDP-α-MSH displacement observed at 10 μM.
Description: as §2, §3
Data set [7] has as its target T3, hMC1R. The data set can be described thus: Competition binding assay with [125I]-NDP-α-MSH, whole HEK293 cells expressing hMC1R. The conditions noted are these: for IC50 / MC1R % BE (Percent Binding Efficiency): Table 4; for IC50: 50% specific binding (N = 4), NB = 0% of 125I-NDP-α-MSH displacement observed at 10 μM, read-out: MC1R IC50; for MC1R % BE (Percent Binding Efficiency): maximal % of 125I-NDP-α-MSH displacement observed at 10 μM; for selectivity towards hMC1R (binding, versus hMC3R, hMC4R, hMC5R): statement in words, refers to Table 4.
Description: as §2, §3

Data set [8] concerns the target T4, hMC4R. As to the kind of experiment: cAMP assay (intracellular cAMP accumulation) at hMC4R. The conditions noted are these: Table 2; for Emax: cAMP activity, read-out: hMC4R % max effect. Type of data set: cell-based. Also on record: expressed in transfected cells.
Description: as §1
Where [9] appears, read: Table 2, concentration of peptide at 50% specific binding (N = 4), tested 10^-10 to 10^-5 M, read-out: hMC5R IC50.
[10] abbreviates: Table 2, concentration of peptide at 50% specific binding (N = 4), tested 10^-10 to 10^-5 M, read-out: hMC3R IC50.
Setting [11] is: Table 4, 50% specific binding (N = 4), NB = 0% of 125I-NDP-α-MSH displacement observed at 10 μM, read-out: MC4R IC50.
Setting [12] is: Table 4, 50% specific binding (N = 4), NB = 0% of 125I-NDP-α-MSH displacement observed at 10 μM, read-out: MC5R IC50.
[13] abbreviates: Table 4, 50% specific binding (N = 4), NB = 0% of 125I-NDP-α-MSH displacement observed at 10 μM, read-out: MC3R IC50.
The mark [14] stands for this setting: 50% maximal intracellular cAMP accumulation (N = 4), tested 10^-10 to 10^-5 M.

Where two headings read alike, the source gives them in different places.

T2 sequence (P41968 whole entry): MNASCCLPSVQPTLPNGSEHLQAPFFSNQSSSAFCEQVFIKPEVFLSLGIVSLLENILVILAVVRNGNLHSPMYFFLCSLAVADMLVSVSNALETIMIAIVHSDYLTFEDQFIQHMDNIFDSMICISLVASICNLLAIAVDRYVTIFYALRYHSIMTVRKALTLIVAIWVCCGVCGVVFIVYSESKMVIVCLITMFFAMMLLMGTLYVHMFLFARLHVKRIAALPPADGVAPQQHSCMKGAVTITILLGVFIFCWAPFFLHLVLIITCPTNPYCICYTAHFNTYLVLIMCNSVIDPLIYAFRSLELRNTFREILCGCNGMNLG
T1 sequence (P33032 whole entry): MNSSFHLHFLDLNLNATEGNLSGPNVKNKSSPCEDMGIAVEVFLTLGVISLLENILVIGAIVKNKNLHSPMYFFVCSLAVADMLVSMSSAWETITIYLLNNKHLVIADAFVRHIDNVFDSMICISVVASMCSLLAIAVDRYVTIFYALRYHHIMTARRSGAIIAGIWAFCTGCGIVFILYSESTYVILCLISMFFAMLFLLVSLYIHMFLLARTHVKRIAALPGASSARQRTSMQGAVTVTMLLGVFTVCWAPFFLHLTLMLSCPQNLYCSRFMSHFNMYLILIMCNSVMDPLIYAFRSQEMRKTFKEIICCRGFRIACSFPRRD
T3 sequence (Q01726 whole entry): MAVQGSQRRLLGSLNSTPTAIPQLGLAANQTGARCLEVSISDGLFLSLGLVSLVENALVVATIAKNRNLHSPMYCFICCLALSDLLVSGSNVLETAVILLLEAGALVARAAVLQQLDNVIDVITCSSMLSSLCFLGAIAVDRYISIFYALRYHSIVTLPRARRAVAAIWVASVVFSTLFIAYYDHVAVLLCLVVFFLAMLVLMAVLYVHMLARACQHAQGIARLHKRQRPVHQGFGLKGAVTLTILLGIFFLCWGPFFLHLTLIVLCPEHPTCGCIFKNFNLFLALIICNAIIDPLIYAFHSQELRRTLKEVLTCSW
T4 sequence (P32245 whole entry): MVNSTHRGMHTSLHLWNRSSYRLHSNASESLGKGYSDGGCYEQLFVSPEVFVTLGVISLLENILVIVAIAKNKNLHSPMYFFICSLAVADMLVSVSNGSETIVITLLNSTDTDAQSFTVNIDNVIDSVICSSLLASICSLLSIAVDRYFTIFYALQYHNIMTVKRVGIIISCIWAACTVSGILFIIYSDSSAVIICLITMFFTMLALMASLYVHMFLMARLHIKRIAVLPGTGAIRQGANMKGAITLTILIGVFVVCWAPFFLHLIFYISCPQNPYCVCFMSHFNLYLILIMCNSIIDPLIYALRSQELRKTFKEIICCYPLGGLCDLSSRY

`CCCC[C@H](NC(=O)[C@@H](NC(=O)[C@@H](N)Cc1ccc(O)cc1)C(C)C)C(=O)NCC(=O)N[C@@H](Cc1cnc[nH]1)C(=O)N[C@H](Cc1ccc2ccccc2c1)C(=O)N[C@@H](CCCN=C(N)N)C(=O)N[C@H](Cc1c[nH]c2ccccc12)C(=O)N[C@@H](CC(=O)O)C(=O)N[C@@H](CCCN=C(N)N)C(=O)N[C@@H](Cc1ccccc1)C(=O)NCC(N)=O` [SEQ ID NO. 11, H-Tyr-Val-Nle-Gly-His-D-Nal(2′)-Arg-D-Trp-Asp-Arg-Phe-Gly-NH2]: the Emax was determined as 6% at hMC5R [1]; 6% on hMC3R [2] (cAMP activity, read-out: hMC3R % max effect); 70% at hMC1R [5]. Besides, at hMC3R [2], the concentration for a half-maximal effect (EC50) (as a rule, the midpoint of the concentration-response curve) amounted to 300 ± 6 nM. Also, in “in vitro”, the half-life (as a rule, how long it takes for the measured level to halve) was 52 min. The IC50 (commonly the concentration that inhibits the measured activity by half) at hMC5R [3] (setting [9]) turned out to be 3.5 ± 0.5 nM; at hMC3R [4] (setting [10]) it was 5 ± 0.6 nM.

In the case of H-YVLGPFLWDRFG-NH2 [SEQ ID NO. 6], the IC50 on hMC4R [6] (setting [11]) turned out to be 13 nM; on hMC5R [3] (setting [12]), 1.7 nM; at hMC3R [4] (setting [13]), 40 nM. At hMC4R [6] (Table 4), the “MC4R % BE (Percent Binding Efficiency)” value was determined as 29%. Besides, at hMC5R [3] (Table 4), the “MC5R % BE (Percent Binding Efficiency)” value was determined as 32%. In addition, the “MC3R % BE (Percent Binding Efficiency)” value at hMC3R [4] (Table 4) was 32%.

In the case of “H-YVLGHFLFDRFG-NH2 [SEQ ID NO. 5] [listing 1 of 2 here]”, the values for the IC50 at hMC4R [6] (setting [11]), at hMC3R [4] (setting [13]) and at hMC1R [7] were 3210 nM, above 10000 nM and 22 nM, respectively.

In the case of H-YVLGPFRFDRFG-NH2 [SEQ ID NO. 3], the “MC4R % BE (Percent Binding Efficiency)” value at hMC4R [6] (Table 4) amounted to 0%. Further, the “MC5R % BE (Percent Binding Efficiency)” value on hMC5R [3] (Table 4) stood at 0%. Besides, at hMC3R [4] (setting [13]), the IC50 stood at 1250 nM. Further, the “MC3R % BE (Percent Binding Efficiency)” value on hMC3R [4] (Table 4) is on record as 33%. On hMC1R [7], the “MC1R % BE (Percent Binding Efficiency)” value was determined as 0%.

“H-YVLGHFLWDRFG-NH2 [SEQ ID NO. 4] [listing 1 of 2 here]”: the “MC4R % BE (Percent Binding Efficiency)” value at hMC4R [6] (Table 4) is given as 47%. In addition, the “MC5R % BE (Percent Binding Efficiency)” value on hMC5R [3] (Table 4) worked out at 57%. Moreover, at hMC3R [4] (Table 4), the “MC3R % BE (Percent Binding Efficiency)” value was 26%. In addition, the “MC1R % BE (Percent Binding Efficiency)” value at hMC1R [7] came out at 100%.

Turning to H-YVMGPFRWDRFG-NH2 [SEQ ID NO. 10], the values for the EC50 on hMC5R [1] (setting [14]), at hMC4R [8] (setting [14]) and at hMC3R [2] were 82 ± 10 nM, 100 ± 11 nM and 0.33 ± 0.01 nM, respectively. Moreover, the Emax on hMC5R [1] is 97%; at hMC4R [8], 99%. Also, the IC50 on hMC4R [6] (Table 2, concentration of peptide at 50% specific binding (N = 4), tested 10^-10 to 10^-5 M, read-out: hMC4R IC50) was 600 ± 70 nM; on hMC5R [3] (setting [9]), 340 ± 40 nM; on hMC3R [4] (setting [10]), 6.7 ± 1 nM.

For the compound `CCCC[C@H](NC(=O)[C@@H](NC(=O)[C@H](Cc1ccc(O)cc1)NC(C)=O)C(C)C)C(=O)NCC(=O)N[C@@H](Cc1c[nH]cn1)C(=O)N[C@H](Cc1ccccc1)C(=O)N[C@@H](CCCNC(=N)N)C(=O)N[C@@H](Cc1c[nH]c2ccccc12)C(=O)N[C@@H](CC(=O)O)C(=O)N[C@@H](CCCNC(=N)N)C(=O)N[C@@H](Cc1ccccc1)C(=O)NCC(N)=O` [SEQ ID NO. 12, Ac-Tyr-Val-Nle-Gly-His-D-Phe-Arg-Trp-Asp-Arg-Phe-Gly-NH2, reference compound], the Emax on hMC4R [8] was determined as 100%.

For “H-YVLGHFLWDRFG-NH2 [SEQ ID NO. 4] [listing 2 of 2 here]”, the IC50 was above 10000 nM at hMC4R [6] (setting [11]), 7.3 nM at hMC5R [3] (setting [12]), 1880 nM on hMC3R [4] (setting [13]) and 1480 nM on hMC1R [7].

Consider “H-YVLGHFLFDRFG-NH2 [SEQ ID NO. 5] [listing 2 of 2 here]”, for which, on hMC4R [6] (Table 4), the “MC4R % BE (Percent Binding Efficiency)” value is recorded as 58%. Moreover, the “MC5R % BE (Percent Binding Efficiency)” value on hMC5R [3] (Table 4) was determined as 0%. For the same compound, at hMC3R [4] (Table 4), the “MC3R % BE (Percent Binding Efficiency)” value was found to be 45%. At hMC1R [7], the “MC1R % BE (Percent Binding Efficiency)” value amounted to 100% and the “selectivity towards hMC1R (binding, versus hMC3R, hMC4R, hMC5R)” value is “highly selective for MC1R”. The “selectivity towards hMC1R (binding, versus hMC3R, hMC4R, hMC5R)” value at hMC1R [7] (listed as Peptide 5) was “significant selectivity towards hMC1R”.

With `CC(C)C[C@H](NC(=O)[C@@H](NC(=O)[C@@H](N)Cc1ccc(O)cc1)C(C)C)C(=O)NCC(=O)N[C@@H](Cc1c[nH]cn1)C(=O)N[C@@H](Cc1ccccc1)C(=O)N[C@@H](CCCNC(=N)N)C(=O)N[C@@H](Cc1c[nH]c2ccccc12)C(=O)N[C@@H](CC(=O)O)C(=O)N[C@@H](CCCNC(=N)N)C(=O)N[C@@H](Cc1ccccc1)C(=O)NCC(N)=O` [SEQ ID NO. 9], the IC50 at hMC4R [6] (setting [11]) is 1020 nM; at hMC5R [3] (setting [12]), above 10000 nM; on hMC3R [4] (setting [13]), 1620 nM; at hMC1R [7], 198 nM. For the same compound, the “MC4R % BE (Percent Binding Efficiency)” value on hMC4R [6] (Table 4) is 100%. Also, the “MC5R % BE (Percent Binding Efficiency)” value on hMC5R [3] (Table 4) was found to be 60%. The “MC3R % BE (Percent Binding Efficiency)” value on hMC3R [4] (Table 4) turned out to be 53%.

On to H-YVLGPFRWDRFG-NH2 [SEQ ID NO. 2], for which the IC50 on hMC4R [6] (setting [11]) was 76 nM; at hMC5R [3] (setting [12]), 67 nM; on hMC3R [4] (setting [13]) it was 165 nM. Also, the “MC4R % BE (Percent Binding Efficiency)” value at hMC4R [6] (Table 4) came out at 100%. Further, on hMC5R [3] (Table 4), the “MC5R % BE (Percent Binding Efficiency)” value was 100%. Also, the “MC3R % BE (Percent Binding Efficiency)” value at hMC3R [4] (Table 4) is 100%.

For the compound H-YVLGPFLFDRFG-NH2 [SEQ ID NO. 7], the IC50 on hMC4R [6] (setting [11]) was found to be 58 nM; on hMC5R [3] (setting [12]) it was 5.3 nM; on hMC3R [4] (setting [13]), 1400 nM; on hMC1R [7], 11 nM. Further, the “MC4R % BE (Percent Binding Efficiency)” value at hMC4R [6] (Table 4) is 36%. The “MC5R % BE (Percent Binding Efficiency)” value on hMC5R [3] (Table 4) is 34%. For the same compound, the “MC3R % BE (Percent Binding Efficiency)” value on hMC3R [4] (Table 4) is 47%. For the same compound, at hMC1R [7], the “MC1R % BE (Percent Binding Efficiency)” value turned out to be 32%.

Source of the values: patent publication US10188704B2, “Enhanced melanoma cancer prevention by novel melanotropins” (ARIZONA BOARD OF REGENTS ON BEHALF OF THE UNIVERSITY OF …, priority 2015, dated 2019).
